Experimental data as given in EP4772162A1, “COMPOSITION FOR IMPROVING SKIN CONDITION COMPRISING PEPTIDE AS ACTIVE INGREDIENT” (Caregen Co., Ltd., priority 2023, dated 2025).
Peptide text beside a SMILES is read from it.

Assays:
[1] = system: reactive oxygen species (ROS) in NIH3T3 cells; test: Inhibition of UV-induced generation of reactive oxygen species (DCFH-DA, FACS); format: cell-based, mouse; settings: UVA at 6 J/cm^2, peptide at 10 µM, 50 µM, and 100 µM, 24 hours after irradiation, FIG. 3A
Method: (§1) NIH3T3 cells (a mouse fibroblast cell line) and HaCaT cells (a human keratinocyte cell line) were seeded in a 6-well plate at a density of 5 x 10^5 cells/well and cultured for 24 hours. The cultured cells were washed once with serum-free DMEM. The peptide prepared in Preparation Example 1 was mixed into serum-free DMEM at each concentration to prepare medium solutions containing the peptide at 10 µM, 50 µM, and 100 µM, and the medium solutions were added to the cells. The cells to which the peptide was added were cultured for 1 hour in a CO2 incubator at 37°C. After the culture, the medium was removed from the cells, and PBS was added. Using a UV irradiator (VILBER LOURMAT, Cat. No.: 3102-BSU, France), NIH3T3 cells were irradiated with UVA at 6 J/cm^2, and HaCaT cells were irradiated with UVB at 15 mJ/cm^2. After PBS was removed, the above-described peptide-containing medium solutions at the respective concentrations were added again to the cells. The cells to which the peptide was added were cultured for 24 hours in a CO2 incubator at 37°C. After treatment with 10 µM DCFH-DA (2',7'-dichlorofluorescein diacetate), the cells were wrapped in foil and cultured for 30 minutes in a CO2 incubator at 37°C. Subsequently, the cells were washed twice with PBS and then collected, and fluorescence values were measured by FACS.

[2] = system: MMP-1 in NIH3T3 cells; test: Inhibition of UV-induced MMP-1 expression (Western blot); format: cell-based, mouse; settings: UVA at 6 J/cm^2, peptide at 10 µM, 50 µM, and 100 µM, 24 hours after irradiation, FIG. 6A
Method: (§2) The effect of the peptide of SEQ ID NO: 1 prepared in Preparation Example 1 on MMP-1 expression induced by UV was evaluated.
(§3) NIH3T3 cells (a mouse fibroblast cell line) and HaCaT cells (a human keratinocyte cell line) were seeded in a 6-well plate at a density of 5 x 10^5 cells/well and cultured for 24 hours. The cultured cells were washed once with serum-free DMEM. The peptide prepared in Preparation Example 1 was mixed into serum-free DMEM at each concentration to prepare medium solutions containing the peptide at 10 µM, 50 µM, and 100 µM, and the medium solutions were added to the cells. The cells to which the peptide was added were cultured for 1 hour in a CO2 incubator at 37°C. After the cells were cultured, the medium was removed from the cells, and PBS was added. Using a UV irradiator (VILBER LOURMAT, Cat. No.: 3102-BSU, France), NIH3T3 cells were irradiated with UVA at 6 J/cm^2, and HaCaT cells were irradiated with UVB at 15 mJ/cm^2. After PBS was removed, the above-described peptide-containing medium solutions at the respective concentrations were added again to the cells. The cells to which the peptide was added were cultured for 24 hours in a CO2 incubator at 37°C. […] After treatment with an ECL solution (GE Healthcare, Cat. No.: RPN2232, USA), expression levels were analyzed using an ImageQuant 800 instrument (Cytiva, Cat. No.: 29-3994-81, USA).

[3] = system: MMP-1 in HaCaT cells; test: as above; format: cell-based, human; settings: UVB at 15 mJ/cm^2, peptide at 10 µM, 50 µM, and 100 µM, 24 hours after irradiation, FIG. 6B
Method: as §2, §3

[4] = system: AQP3 gene; test: Restoration of expression of skin barrier-related genes reduced by UV irradiation (RT-PCR); format: cell-based, human; settings: HaCaT cells; UVB at 20 mJ/cm^2; peptide at 10 µM, 50 µM, and 100 µM; 4 hours after irradiation; FIG. 5
Method: (§4) Whether the peptide of SEQ ID NO: 1 prepared in Preparation Example 1 restores expression levels of skin barrier-related genes reduced by UV irradiation was evaluated.
(§5) HaCaT cells (a human keratinocyte cell line) were seeded in a 6-well plate at a density of 5 x 10^5 cells/well and cultured for 24 hours. The cultured cells were washed once with serum-free DMEM. The peptide prepared in Preparation Example 1 was mixed into serum-free DMEM at each concentration to prepare medium solutions containing the peptide at 10 µM, 50 µM, and 100 µM, and the medium solutions were added to the cells. The cells to which the peptide was added were cultured for 1 hour in a CO2 incubator at 37°C. After the cells were cultured, the medium was removed from the cells, and PBS was added. Using a UV irradiator (VILBER LOURMAT, Cat. No.: 3102-BSU, France), the cells were irradiated with UVB at 20 mJ/cm^2. After PBS was removed, the above-described peptide-containing medium solutions at the respective concentrations were added again to the cells. The cells to which the peptide was added were cultured for 4 hours in a CO2 incubator at 37°C. After the cells were washed twice with PBS, RNA was isolated using easy blue (iNtRON, Cat. No.: 17061, Korea). The amount of RNA was quantified, 1,000 ng of RNA was added per tube, and then cDNA synthesis was performed using an RT kit (enzynomics, Cat. No.: RT200, Korea). […]

[5] = system: SIRT1 gene; test: as above; format: cell-based, human; settings: HaCaT cells; UVB at 20 mJ/cm^2; peptide at 10 µM, 50 µM, and 100 µM; 4 hours after irradiation; FIG. 5
Method: as §4, §5

[6] = system: collagen Iα1 gene; test: Restoration of expression of extracellular matrix genes reduced by UV irradiation (RT-PCR); format: cell-based, mouse; settings: NIH3T3 cells; UVA at 6 J/cm^2; peptide at 10 µM, 50 µM, and 100 µM; 6 hours after irradiation; FIG. 4
Method: (§6) Whether the peptide of SEQ ID NO: 1 prepared in Preparation Example 1 restores expression levels of extracellular matrix genes reduced by UV irradiation was evaluated.
(§7) NIH3T3 cells (a mouse fibroblast cell line) were seeded in a 6-well plate at a density of 5 x 10^5 cells/well and cultured for 24 hours. The cultured cells were washed once with serum-free DMEM. The peptide prepared in Preparation Example 1 was mixed into serum-free DMEM at each concentration to prepare medium solutions containing the peptide at 10 µM, 50 µM, and 100 µM, and the medium solutions were added to the cells. The cells to which the peptide was added were cultured for 1 hour in a CO2 incubator at 37°C. After the cells were cultured, the medium was removed from the cells, and PBS was added. Using a UV irradiator (VILBER LOURMAT, Cat. No.: 3102-BSU, France), the cells were irradiated with UVA at 6 J/cm^2. After PBS was removed, the above-described peptide-containing medium solutions at the respective concentrations were added again to the cells. The cells to which the peptide was added were cultured for 6 hours in a CO2 incubator at 37°C. After the cells were washed twice with PBS, RNA was isolated using easy blue (iNtRON, Cat. No.: 17061, Korea). The amount of RNA was quantified, 1,000 ng of RNA was added per tube, and then cDNA synthesis was performed using an RT kit (enzynomics, Cat. No.: RT200, Korea). Subsequently, PCR was performed using a PCR kit (enzynomics, Cat. No.: P581T, Korea), with collagen Iα1, fibronectin, or elastin gene as a detection target.

[7] = system: elastin gene; test: as above; format: cell-based, mouse; settings: NIH3T3 cells; UVA at 6 J/cm^2; peptide at 10 µM, 50 µM, and 100 µM; 6 hours after irradiation; FIG. 4
Method: as §6, §7

[8] = system: fibronectin gene; test: as above; format: cell-based, mouse; settings: NIH3T3 cells; UVA at 6 J/cm^2; peptide at 10 µM, 50 µM, and 100 µM; 6 hours after irradiation; FIG. 4
Method: as §6, §7

[9] = system: AQP3 (Aquaporin 3) gene; test: mRNA expression of skin barrier-related genes (RT-PCR); format: cell-based, human; settings: HaCaT cells; peptide at 10 µM, 50 µM, and 100 µM; 24 hours; FIG. 2
Method: (§8) The effect of the peptide prepared in Preparation Example 1 on expression of genes related to a skin barrier was evaluated.
(§9) HaCaT cells (a human keratinocyte cell line) were seeded in a 6-well plate at a density of 3 x 10^5 cells/well and cultured for 24 hours. The cultured cells were washed once with serum-free DMEM. The peptide prepared in Preparation Example 1 was mixed into serum-free DMEM at each concentration to prepare medium solutions containing the peptide at 10 µM, 50 µM, and 100 µM, and the medium solutions were added to the cells. The cells were cultured for 24 hours in a CO2 incubator at 37°C and washed twice with PBS, and then RNA was isolated using easy blue (iNtRON, Cat. No.: 17061, Korea). The amount of RNA was quantified, 1,000 ng of RNA was added per tube, and then cDNA synthesis was performed using an RT kit (enzynomics, Cat. No.: RT200, Korea). Thereafter, PCR was performed using a PCR kit (enzynomics, Cat. No.: P581T, Korea), with SIRT1 (Sirtuin 1) or AQP3 (Aquaporin 3) gene as a detection target.

[10] = system: SIRT1 (Sirtuin 1) gene; test: as above; format: cell-based, human; settings: HaCaT cells; peptide at 10 µM, 50 µM, and 100 µM; 24 hours; FIG. 2
Method: as §8, §9

[11] = system: reactive oxygen species (ROS) in HaCaT cells; test: Inhibition of UV-induced generation of reactive oxygen species (DCFH-DA, FACS); format: cell-based, human; settings: UVB at 15 mJ/cm^2, peptide at 10 µM, 50 µM, and 100 µM, 24 hours after irradiation, FIG. 3B
Method: as §1

[12] = system: elastin gene; test: mRNA expression of extracellular matrix component genes (RT-PCR); format: cell-based, mouse; settings: NIH3T3 cells; peptide at 10 µM, 50 µM, and 100 µM; 24 hours; FIG. 1
Method: (§10) The effect of the peptide prepared in Preparation Example 1 on expression of extracellular matrix (ECM) components was evaluated by measuring mRNA expression levels of the genes of the respective components.
as §9, with “NIH3T3” for “HaCaT”, “mouse fibroblast” for “human keratinocyte”, “collagen Iα1, fibronectin,” for “SIRT1 (Sirtuin 1)”, “elastin” for “AQP3 (Aquaporin 3)”

[13] = system: fibronectin gene; test: as above; format: cell-based, mouse; settings: NIH3T3 cells; peptide at 10 µM, 50 µM, and 100 µM; 24 hours; FIG. 1
Method: as §10
as §9, with “NIH3T3” for “HaCaT”, “mouse fibroblast” for “human keratinocyte”, “collagen Iα1, fibronectin,” for “SIRT1 (Sirtuin 1)”, “elastin” for “AQP3 (Aquaporin 3)”

[14] = system: collagen Iα1 (Collagen, type I, alpha 1) gene; test: as above; format: cell-based, mouse; settings: NIH3T3 cells; peptide at 10 µM, 50 µM, and 100 µM; 24 hours; FIG. 1
Method: as §10
as §9, with “NIH3T3” for “HaCaT”, “mouse fibroblast” for “human keratinocyte”, “collagen Iα1, fibronectin,” for “SIRT1 (Sirtuin 1)”, “elastin” for “AQP3 (Aquaporin 3)”

CC(C)C[C@H](NC(=O)[C@H](CC(C)C)NC(=O)[C@@H](N)CCCNC(=N)N)C(=O)N[C@@H](CC(N)=O)C(=O)O [peptide of SEQ ID NO: 1, RLLN] (H-RLLN-OH)
intracellular ROS levels increased by UV irradiation [1]: reduced | increase in MMP-1 expression induced by UV irradiation [2]: inhibited | increase in MMP-1 expression induced by UV irradiation [3]: inhibited | mRNA expression level of AQP3 gene reduced by UV irradiation [4]: restored | mRNA expression level of SIRT1 gene reduced by UV irradiation [5]: restored | mRNA expression level of collagen Iα1 gene reduced by UV irradiation [6]: increased again | mRNA expression level of elastin gene reduced by UV irradiation [7]: increased again | mRNA expression level of fibronectin gene reduced by UV irradiation [8]: increased again | mRNA expression level of AQP3 (Aquaporin 3) gene [9]: increased | mRNA expression level of SIRT1 (Sirtuin 1) gene [10]: increased | intracellular ROS levels increased by UV irradiation [11]: reduced | mRNA expression level of elastin gene [12]: increased | mRNA expression level of fibronectin gene [13]: increased | mRNA expression level of collagen Iα1 (Collagen, type I, alpha 1) gene [14]: increased
